Assay results reported in patent US9029414B2, “Triterpenoid compounds and methods of use thereof” (Biotechnology Research Corporation, priority 2008, dated 2015).

Experiments:
[1] = system: MOG-induced IFN-γ in primary splenocytes; test: IFN-γ Quantikine ELISA in primary splenocytes of EAE mice; format: cell-based; settings: for Reduction in IFN-γ, % Reduction: splenocytes of EAE mice dosed 100 mg/kg orally daily vs MOG + Vehicle; for IFN-γ, Average / level of IFN-γ: splenocytes of EAE mice dosed 100 mg/kg orally daily, exogenous MOG; for decrease of IFN-γ in response to exogenous compound: splenocytes of compound-treated EAE mice (100 mg/kg); for decrease of IFN-γ in response to exogenous compound / reduction in the amount of MOG-induced IFN-γ: exogenous compound 30 μM, MOG 25 μg/mL; for reduction in the amount of MOG-induced IFN-γ: splenocytes of vehicle-treated EAE mice, 48 hrs
Method: (§1) On day 21, EAE mice were sacrificed by cervical dislocation and spleens were removed aseptically. The removed spleens were then cut with sterilized scissors and strained through […] mesh (BD Bioscience) with a plunger of 5 mL syringe (BD Bioscience) in 9 mL of RPMI 1640 (Invitrogen) with 100 U/mL penicillin and 100 μg/mL streptomycin (Sigma). The cell mixture was then added to 9 mL of Lympholyte (Cedarlane Laboratories) for gradient separation of splenocytes from red bloods cells by centrifugation at 1500 g for 20 min. After the centrifugation, the lympholyte layer containing splenocytes were carefully removed and washed with 10 mL of RPMI 1640 at 800 g for 10 min for three times. The isolated splenocytes were seeded onto different plate format and cultured with RPMI 1640 medium (Invitrogen) supplement with 10% heat inactivated fetal bovine serum (Invitrogen) and 100 U/mL penicillin and 100 μg/mL streptomycin at 37° C. CO2 incubator.
Splenocytes from EAE mice were cultured at the density of 1×10^6 cells in 12-well plates (Falcon) in the absence or presence of the MOG peptide (25 μg/mL) (Hooke Laboratories), DA001 and DA021 (30 μM) with RPMI 1640 medium (Invitrogen) supplement with 10% heat inactivated fetal bovine serum (Invitrogen) and 100 U/mL penicillin and 100 μg/mL streptomycin (Sigma) for 48 h. After 48 h, the supernatants were collected by pelleting the cells at 300 g for 10 min at 4° C. 50 μL of the each sample was added to the microtiter plate provided by the manufacturer of the Quantikine ELISA assay kit (R and D systems). Additional 50 μL of assay diluents buffer was added and incubated at room temperature for 2 h. After the incubation, the supernatants were discarded and the cells were washed with wash buffer. 100 μL of conjugate was added to the cells and the plate was again incubated at room temperature for 2 h. After another washing, 100 μL of substrate solution was added followed by 30 min incubation at room temperature. Subsequently, 100 μL of stop solution was added to each well and the plate was read in 450 nm wavelength on a microplate reader (Dynex Revelation 2.2).
Cytokines are believed to be one of the key signaling molecules in disease progression of EAE. Autoimmune response observed in the EAE model is believed to be mediated via the Th1 pathway, and interferon-gamma (IFN-γ) is the hallmark cytokine of the Th1 immune response. Therefore, it is critical to examine the efficacy of the compounds in modulating the levels of cytokines in EAE mice. To this end, splenocytes isolated from the spleens of EAE mice were cultured and treated with exogenous MOG peptide and the amount of IFN-γ was measured in response to exogenous DA001 and DA021 (30 μM) treatments using ELISA.
The cells were cultured in RPMI 1640 medium supplement with 10% heat inactivated fetal bovine serum and penicillin/streptomycin, in the absence or presence of MOG (25 μg/mL, Ex) with or without DA001 or DA021 (30 μM, Ex). Supernatants were collected after 48 hrs and IFN-γ Quantikine ELISA assay kit (R and D systems) was used according to the manufacturer's protocol. The amount of IFN-γ was calculated based on the standard curve established during the assay. The graph presented is the composite of two separate trials with duplicate samples in each trial. ***=p≦0.0001, **=p≦0.001, *=p≦0.01.
Cells were cultured in RPMI 1640 medium supplement with 10% heat inactivated fetal bovine serum and penicillin/streptomycin, in the absence or presence of MOG (25 μg/mL) with or without DA001 (30 μM). Supernatants were collected after 48 hrs and IFN-γ Quantikine ELISA assay kit (R and D systems) was used according to the manufacturer's protocol. The amount of IFN-γ was calculated based on the standard curve established during the assay. The graph presented is the composite of two separate trials with duplicate samples in each trial. ***=p≦0.0001. […]

[2] = system: phosphorylated STAT3, STAT4, STAT6 in splenocytes of EAE mice; test: Western blot of phosphorylated STAT proteins in EAE splenocytes; format: cell-based; settings: exogenous 30 μM, MOG 25 μg/mL, splenocytes of vehicle-treated EAE mice
Method: as §1
Splenocytes of EAE mice were cultured at the density of 1×10^7 cells in 6-well plates (Falcon) and treated with the absence or presence of the MOG peptide (25 μg/mL) (Hooke Laboratories), DA001, and DA021 (30 μM) for 24 h. After overnight incubation, the splenocytes were lysed with RIPA containing antipain dihydrochloride, trypsin inhibitor, leupeptin, aprotinin, sodium orthovanadate, benzamidine and phenyl methane sulphonyl fluoride. After centrifugation at 14000 rpm for 15 min, 4° C., protein concentrations were determined by Dc Protein Assay kit (Bio-Rad). 20 μg of each sample was subjected to 10% SDS-PAGE with 20 mA for 3 h. Immunoblot analysis was performed by transfer of proteins onto nitrocellulose membranes using a mini trans-blot apparatus (Bio-Rad). After 2 h blocking with milk, the membranes were incubated overnight at 4° C. with specific primary Abs (1:1000): anti-phospho-Stat 3 (Cell signaling), anti-phospho-Stat 4 (BD Bioscience), and anti-phospho-Stat 6 (Cell signaling). Anti-α-tubulin (Sigma) was used as a loading control. After washing, subsequent incubation with anti-rabbit or anti-mouse HRP-conjugated secondary antibody (1:3000) (Cell Signaling) for 1 h at room temperature was carried out. The signal was detected by ECL Western blot detection kit (GE Healthcare).
The efficacy of DA compounds in modulating the expression of pro-inflammation proteins was examined. Western blot analysis was performed on cultured splenocytes isolated from the spleen of EAE mice and the expression of signal transducers and activators of transcription (STAT) proteins was examined in response to exogenous treatments of MOG (25 μg/mL), DA001 (30 μM) and DA021 (30 μM). Exogenous addition of MOG [MOG (Ex)] to EAE splenocytes is shown to robustly increase the phosphorylation of STAT3, STAT4, and STAT6.
Western blot analysis was performed as described in the methodology.

C=C(C)[C@@H]1CC[C@]2(/C=N/O)CC[C@]3(C)C(CCC4[C@@]5(C)CCC(=O)[C@@](C)(CO)[C@@H]5CC[C@]43C)C12 (stereo partly drawn) [DA021]
Reduction in IFN-γ, % Reduction [1]: 78.3%
IFN-γ, Average [1]: 135.3 ± 12.3 ρg/mL
level of IFN-γ [1]: 135 pg/mL
decrease of IFN-γ in response to exogenous compound [1]: 78%
reduction in the amount of MOG-induced IFN-γ [1]: 62%
MOG-induced STAT3 phosphorylation [2]: significantly decreased
MOG-induced STAT4 phosphorylation [2]: significantly decreased
STAT6 phosphorylation [2]: marked decrease

C=C(C)[C@@H]1CC[C@]2(C(=O)O)CC[C@]3(C)C(CC[C@@H]4[C@@]5(C)CC[C@H](O[C@@H]6OC[C@H](O)[C@H](O)[C@H]6O[C@@H]6O[C@@H](C)[C@H](O)[C@@H](O)[C@H]6O)[C@@](C)(CO)[C@@H]5CC[C@]43C)[C@@H]12 (stereo partly drawn) [DA001, 3-O-[α-L-rhamnopyranosyl-(1→2)-α-L-arabinopyranosyl]-3,23-dihydroxy-20(29)-lupen-28-oic acid]
Reduction in IFN-γ, % Reduction [1]: 83.1%
IFN-γ, Average [1]: 105.7 ± 5.1 ρg/mL
level of IFN-γ [1]: 105 pg/mL
decrease of IFN-γ in response to exogenous compound [1]: 91%
reduction in the amount of MOG-induced IFN-γ [1]: 71%
MOG-induced STAT3 phosphorylation [2]: significantly decreased
MOG-induced STAT4 phosphorylation [2]: significantly decreased
